Measured values published in patent US20150051186A1, “ARYL AZETIDINE DERIVATIVES AS SPHINGOSINE-1 PHOSPHATE RECEPTORS MODULATORS” (Allergan, Inc., priority 2013, published 2015).

molecular target: T1, human S1P1 receptor (Homo sapiens, UniProt P21453); assay: GTP γ35S binding assay for S1P1 activity; type: biochemical; details: membranes of cells stably expressing the S1P1 receptor, agonist potency
T1 construct: expressed in transfected cells; membranes were used
Method: Compounds were synthesized and tested for S1P1 activity using the GTP γ^35S binding assay. These compounds may be assessed for their ability to activate or block activation of the human S1P1 receptor in cells stably expressing the S1P1 receptor.
GTP γ^35S binding was measured in the medium containing (mM) HEPES 25, pH 7.4, MgCl2 10, NaCl 100, dithiothreitol 0.5, digitonin 0.003%, 0.2 nM GTP γ^35S, and 5 μg membrane protein in a volume of 150 μl. Test compounds were included in the concentration range from 0.08 to 5,000 nM unless indicated otherwise. Membranes were incubated with 100 μM 5′-adenylylimidodiphosphate for 30 min, and subsequently with 10 μM GDP for 10 min on ice. Drug solutions and membrane were mixed, and then reactions were initiated by adding GTP γ^35S and continued for 30 min at 25° C. Reaction mixtures were filtered over Whatman GF/B filters under vacuum, and washed three times with 3 mL of ice-cold buffer (HEPES 25, pH7.4, MgCl2 10 and NaCl 100). Filters were dried and mixed with scintillant, and counted for ^35S activity using a β-counter. Agonist-induced GTP γ^35S binding was obtained by subtracting that in the absence of agonist. Binding data were analyzed using a non-linear regression method. In case of antagonist assay, the reaction mixture contained 10 nM […] in the presence of test antagonist at concentrations ranging from 0.08 to 5000 nM.

T1 sequence (P21453 whole entry): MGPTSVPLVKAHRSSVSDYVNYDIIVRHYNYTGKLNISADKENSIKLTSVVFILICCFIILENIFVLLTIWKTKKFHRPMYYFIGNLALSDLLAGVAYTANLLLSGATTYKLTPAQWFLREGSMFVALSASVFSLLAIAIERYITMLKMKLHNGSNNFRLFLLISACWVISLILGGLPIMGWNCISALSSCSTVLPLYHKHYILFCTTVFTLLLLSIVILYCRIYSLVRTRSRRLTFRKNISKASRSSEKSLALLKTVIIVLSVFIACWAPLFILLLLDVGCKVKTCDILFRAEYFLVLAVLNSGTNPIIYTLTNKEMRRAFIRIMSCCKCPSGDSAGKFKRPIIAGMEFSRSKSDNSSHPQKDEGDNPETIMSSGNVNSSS

`Cc1ccc(CC(CCCCCCN2CC(C(=O)O)C2)c2cccc(Cl)c2)cc1C` (stereo not shown) [Compound 3, 1-[7-(3-Chlorophenyl)-8-(3,4-dimethylphenyl)octyl]azetidine-3-carboxylic acid] and `Cc1ccc(CC(CCCCCCCN2CC(C(=O)O)C2)c2cccc(Cl)c2)cc1C` (stereo not shown) [Compound 4, 1-[8-(3-Chlorophenyl)-9-(3,4-dimethylphenyl)nonyl]azetidine-3-carboxylic acid] are within 1.5-fold of each other in EC50: 801 nM for the first, 644 nM for the second.

Going from `Cc1ccc(CC(CCCCCCCN2CC(C(=O)O)C2)c2cc(F)cc(F)c2)cc1C` (stereo not shown) [Compound 2, 1-[8-(3,5-Difluorophenyl)-9-(3,4-dimethylphenyl)nonyl]azetidine-3-carboxylic acid] to `O=C(O)C1CN(CCCCCCCCC(Cc2ccccc2)c2cccc(Cl)c2)C1` (stereo not shown) [Compound 1, 1-[9-(3-Chlorophenyl)-10-phenyldecyl]azetidine-3-carboxylic acid], the EC50 rises from 61.4 nM to 129 nM (2.1-fold). The first is the more potent here.
